Where a SMILES comes first, the peptide text is derived from it. Side-chain parts run from the residue outwards. [ ]: non-standard residue; d: D form. The star is where a group is joined. 2Nal = N[C@@H](Cc1ccc2ccccc2c1)C(=O)O; dNMeOrn = CN[C@H](CCCN)C(=O)O; 4Abz = Nc1ccc(C(=O)O)cc1; X1 = NCCNCC(CNCCN)C(=O)*; dDap = NC[C@@H](N)C(=O)O
Key:
[1] = tested on: Jurkat xenograft bearing CB17/SCID mice; assay: Biodistribution in Jurkat xenograft-bearing mice, 1 h p.i.; type: in vivo; settings: n = 5, mean ± SD
Protocol: Female CB17/SCID mice bearing subcutaneous Jurkat human T cell lymphoma xenografts (for more detailed information, see supplemental material) were injected intravenously with the respective ^99mTc-labeled tracer (5–20 MBq, 0.1–0.2 nmol/mouse) under isofluorane anesthesia and were sacrificed at 1 h post-injection (p.i.). The organs of interest were dissected, and the activity concentration in weighed tissue samples was quantified using a WIZARD^2® 2480 automatic γ-Counter from Perkin Elmer (Waltham MA, USA). Biodistribution data are given in %iD/g and represent means ± SD (groups of n = 4–5 animals). Statistical analysis (t-test) was performed using GraphPad Prism.
To establish tumor xenografts, Jurkat cells (2 – 3x10^7 cells) were suspended in a mixture of RPMI 1640 medium and Matrigel (1/1; v/v) (BD Biosciences, Heidelberg, Germany), and injected subcutaneously into the right shoulder of 6–10 weeks old CB17-SCID mice from either Charles River GmbH (Sulzfeld, Germany) or the in-house mouse breeding facility. As soon as tumors had grown to a diameter of 5–8 mm (4 – 10 weeks after inoculation), mice were used for the experiments.

[2] = In vitro stability in various media (radio-TLC); type: in vitro ADME; settings: for percentage of intact tracer: original product formulation
Protocol: Solutions were incubated for up to 13 h at room temperature. Sequential radio-thin layer chromatography was performed after 20 min, 40 min, 100 min, 2.6 h, 3.6 h, 4.4 h, and 13 h of incubation, and the amount of intact ligand was analyzed by integration of the TLC chromatogram.

[3] = Safety monitoring in patients (adverse events); type: in vivo, human
Protocol: Five patients (age, 48–72 y, median 66 y) with a history of hematological malignancy underwent imaging after intravenous injection of a median of 558 MBq (range, 417–601) [^99mTc]Tc-PentixaTec. […] Safety was assessed by monitoring adverse events after administration of [^99mTc]PentixaTec.

In the case of C[C@@H](NC(=O)[C@@H](CCCNC(=N)N)NC(=O)[C@@H](CN)NC(=O)C(CNCCN)CNCCN)C(=O)Nc1ccc(C(=O)NCCC[C@@H]2C(=O)N[C@@H](CCCNC(=N)N)C(=O)N[C@@H](Cc3ccc4ccccc4c3)C(=O)NCC(=O)N[C@H](Cc3ccc(O)cc3)C(=O)N2C)cc1 [[^99mTc]Tc-N4-L6-CPCR4, [^99mTc]Tc-N4-dap-r-a-Abz-CPCR4, metal not drawn] (cyclo([dY][dNMeOrn]([4Abz-dA-dR-dDap-X1])R[2Nal]G)), the “Biodistribution Tumor (tumor accumulation)” value ([1]; Jurkat xenograft) is reported as 8.6 ± 1.3 %iD/g, the “Biodistribution Muscle” value [1] is reported as 0.3 ± 0.05 %iD/g and the “Biodistribution Spleen” value [1] is reported as 5.6 ± 0.8 %iD/g. The “stability in saline and challenging conditions” value ([2]; diluted with saline, citrate and DTPA, room temperature) was “progressive decomposition”, the “percentage of intact tracer” value ([2]; start) was 94.5% and the “percentage of intact tracer” value ([2]; within 2.5 h) was 90.6%. The “stability in physiological media” value ([2]; whole blood, serum, human serum albumin (2.5 and 5%), 13 h, room temperature) was “fully stable”, the adverse events ([3]; five patients) was “no adverse events were recorded” and the tolerability ([3]; five patients with hematologic malignancies) was “well tolerated”.

— PMC10611619, “[^99mTc]Tc-PentixaTec: development, extensive pre-clinical evaluation, and first human experience” (European Journal of Nuclear Medicine and Molecular Imaging, 2023)
